# Assay results from publication PMC9130233, “An inhibitor of RORγ for chronic pulmonary obstructive disease treatment” (Scientific Reports, 2022).
# Legend:
# human RORγ = tested on: T1, human RORγ; experiment: Dissociation assay, jump dilution method (TR-FRET), human; assay type: binding
# T1 construct: RORC-LBD region 229-497aa; made in house; host or cells: Escherichia coli BL21-DE3
# Protocol: To understand the inverse agonist behavior at the molecular level, interaction with the nuclear receptor RORγ was analyzed in binding assays by estimating its dissociation constant (Koff) and half-life (t1/2). The binding of a ligand stabilizes the conformation of the LBD while binding of a cofactor modifies receptor activity. Binding reversibility was evaluated by adding an excess of competing ligand in the FRET assay and evaluating the displacement of the tracer with inhibitor. Binding of the PCCR-1 with the LBD caused reduction in FRET on antibody addition forming a GST (Glutathione S-transferases) tagged RORγ-antibody complex. The dissociation assay was performed using the jump dilution method with PCCR-1 at a concentration showing maximum binding potency or IC90. The dissociation was tested on addition of an excess of a competitive ligand, the tracer.
# [1] = tested on: Nuclear receptors (RORα, RARα, LXRα, LXRβ, RXR, FXR); experiment: Cerep panel, nuclear receptors: binding assays; parameters: key: NSE No significant effect; V wk very weak (very low-level agonist activity seen with mPPARγ); settings: at 10 µM
# Excerpt: (§1) Based on the homology of the ligand binding domains, 3 different isoforms of ROR (hRORα, hRORβ and hRORγ) are reported. Small variations in the LBD regions possibly lead to differences in competitive binding between the nuclear receptors of the ROR isoforms (Fig. 1b). Similar to the assessment of RORγ binding assay, TR-FRET binding assays were also used to assess the affinity of PCCR-1 for other ROR isoforms. […] This was reconfirmed in cellular functional assays for the selected isoforms and nuclear receptors using Gal4 DBD with luciferase reporter system from Indigo (PA, USA). […] In addition, both cellular agonist and antagonist effects as well as for enzyme activity were evaluated with a known reference compound for each target, using a radiolabeled method (Eurofins Cerep, France, Table 1).
# mPPARγ = experiment: Nuclear receptors: functional assay, mPPARγ agonism; assay type: cell-based, mouse; parameters: key: NSE No significant effect; V wk very weak (very low-level agonist activity seen with mPPARγ); settings: nuclear receptors: functional assays
# Excerpt: as §1
# [2] = tested on: Th1 (IL-2 and IFN-γ) and Th2 (IL-4, IL-13 and IL-10) dependent cytokines in hPBMCs; experiment: Th1 and Th2 cytokine release, human PBMC, TCR activating conditions; assay type: cell-based; settings: hPBMC, even at 10 µM
# Protocol: An increase in the levels of Th17 dependent cytokine in the peripheral blood of COPD patients as compared to the Th1 and Th2 dependent cytokines has been well documented in a subset of COPD patients. A comparative study was performed under TCR activating conditions to evaluate the potencies of PCCR-1 for inhibition across Th1, Th2 and Th17 dependent cytokines using hPBMCs.
# Human whole blood from healthy subjects were procured from Clinical Research Unit, Sanpada. Clinical Research Center Glenmark (Plot No. D, 508, Turbhe, TTC Industrial Area, MIDC, Sanpada, Navi Mumbai, Maharashtra 400705, India). PBMCs were isolated using heparinized blood with Ficoll Histopaque. Briefly, the cells were seeded in 96-well plate pre-coated with human anti-CD3 mAb (10 µg/mL), post 30 min of compound treatment cells were stimulated with human anti-CD28 mAb (2 µg/mL). After 72 h of culture, the supernatant was collected for Th1/Th2 cytokines; IFN-γ, IL-2, IL-4 and IL-10 and measured by ELISA. For Th17 polarization assay, the following cytokine cocktail was used: IL-1β (10 ng/ml), IL-23(10 ng/ml), IL-6 (50 ng/ml), TGF-β1 (3 ng/ml), IL-2 (20U/ml) and supernatants were used for measuring IL-17 and IL-22 by ELISA.
smiles,measurement,setting,value
CCn1c(C(C)(C)Oc2ccc(F)cc2F)nc2cc(NC(=O)Cc3ccc(S(=O)(=O)CC)cc3)ccc21 [PCCR-1],dissociation,human RORγ; after 290 min (~ 5 h),50%
same,t1/2 (target residence time),"human RORγ; human RORγ, jump dilution, PCCR-1 at IC90",290.4 min
same,absolute dissociation,"human RORγ; human, till 3 h of measurement",50%
same,"Nuclear receptors: binding assays (RORα, RARα, LXRα, LXRβ, RXR, FXR)",[1],NSE at 10 µM
same,mPPARγ(agonism),mPPARγ,V wk
same,"inhibition of Th1 (IL-2 and IFN-γ) and Th2 (IL-4, IL-13 and IL-10) dependent cytokines",[2],did not show significant inhibition
